Results from the OligoGym collection.
HELM strings list units from the 5' end as sugar, base in round brackets, then linkage (d deoxyribose, r ribose, m 2'-O-methyl, p phosphodiester). Strings are as the collection lists them, not checked against the first reports. ss, as = sense and antisense strand; [lna] = locked nucleic acid (LNA); [s4r] = 4'-thioribose; [fl2r] = 2'-fluoro

Conditions: siRNA
Further: test system not given here.

Substance	target mRNA knockdown
RNA1{r(U)p.r(A)p.r(A)p.r(G)p.r(A)p.r(U)p.r(G)p.r(U)p.r(U)p.r(C)p.r(A)p.r(U)p.r(C)p.r(G)p.r(A)p.r(G)p.r(U)p.r(C)p.r(C)p.d(T)p.d(T)}|RNA2{r(G)p.r(G)p.r(A)p.r(C)p.r(U)p.r(C)p.r(G)p.r(A)p.r(U)p.r(G)p.r(A)p.r(A)p.r(C)p.r(A)p.r(U)p.r(C)p.r(U)p.r(U)p.r(A)p.d(T)p.d(T)}$$$RNA1{StrandType:ss}|RNA2{StrandType:as}$	0%
RNA1{r(A)p.r(A)p.r(A)p.r(C)p.r(A)p.r(U)p.r(G)p.r(C)p.r(A)p.r(G)p.r(A)p.r(A)p.r(A)p.r(A)p.r(U)p.r(G)p.r(C)p.r(U)p.r(G)p.r(T)p.r(T)}|RNA2{r(C)p.r(A)p.r(G)p.r(C)p.r(A)p.r(U)p.r(U)p.r(U)p.r(U)p.r(C)p.r(U)p.r(G)p.r(C)p.r(A)p.r(U)p.r(G)p.r(U)p.[s4r](U)p.[s4r](U)p.r(T)p.r(T)}$$$RNA1{StrandType:ss}|RNA2{StrandType:as}$	57.2%
RNA1{r(A)p.r(U)p.r(C)p.r(A)p.r(C)p.r(A)p.r(A)p.r(A)p.r(C)p.r(C)p.r(C)p.r(C)p.m(U)p.r(A)p.r(G)p.r(A)p.r(G)p.r(G)p.r(G)p.r(T)p.r(T)}|RNA2{r(C)p.r(C)p.r(C)p.r(U)p.r(C)p.m(U)p.r(A)p.r(G)p.r(G)p.r(G)p.r(G)p.r(U)p.r(U)p.r(U)p.r(G)p.r(U)p.r(G)p.r(A)p.r(U)p.r(T)p.r(T)}$$$RNA1{StrandType:ss}|RNA2{StrandType:as}$	29%
RNA1{[fl2r](U)p.r(A)p.r(A)p.r(C)p.r(C)p.r(C)p.r(C)p.r(A)p.r(A)p.r(G)p.r(A)p.r(A)p.r(C)p.r(G)p.r(G)p.r(G)p.r(C)p.r(U)p.r(U)p.r(T)p.r(T)}|RNA2{r(A)p.r(A)p.r(G)p.r(C)p.r(C)p.r(C)p.r(G)p.r(U)p.r(U)p.r(C)p.r(U)p.r(U)p.r(G)p.r(G)p.r(G)p.r(G)p.r(U)p.[fl2r](U)p.r(A)p.r(T)p.r(T)}$$$RNA1{StrandType:ss}|RNA2{StrandType:as}$	73%
RNA1{[fl2r](C)p.r(U)p.[fl2r](C)p.r(U)p.[fl2r](C)p.r(C)p.[fl2r](U)p.r(A)p.[fl2r](C)p.r(C)p.[fl2r](U)p.r(U)p.[fl2r](C)p.r(U)p.[fl2r](C)p.r(C)p.[fl2r](U)p.r(C)p.[fl2r](U)p.r(T)p.r(T)}|RNA2{r(A)p.r(G)p.r(A)p.r(G)p.r(G)p.r(A)p.r(G)p.r(A)p.r(A)p.r(G)p.r(G)p.r(U)p.r(A)p.r(G)p.r(G)p.r(A)p.r(G)p.r(A)p.r(G)p.r(T)p.r(T)}$$$RNA1{StrandType:ss}|RNA2{StrandType:as}$	69%
RNA1{[lna](G)p.r(C)p.r(A)p.r(G)p.r(C)p.r(A)p.r(C)p.r(G)p.r(A)p.r(C)p.r(U)p.r(U)p.r(C)p.r(U)p.r(U)p.r(C)p.r(A)p.r(A)p.r(G)p.r(U)p.r(U)}|RNA2{r(C)p.[fl2r](U)p.r(U)p.r(G)p.r(A)p.r(A)p.r(G)p.r(A)p.r(A)p.r(G)p.r(U)p.r(C)p.r(G)p.r(U)p.r(G)p.r(C)p.r(U)p.r(G)p.r(C)p.r(U)p.r(U)}$$$RNA1{StrandType:ss}|RNA2{StrandType:as}$	69.3%
RNA1{r(A)p.r(U)p.r(C)p.m(U)p.r(A)p.r(C)p.r(C)p.r(C)p.r(A)p.r(G)p.r(C)p.r(U)p.r(C)p.r(U)p.r(C)p.r(C)p.r(C)p.r(U)p.r(U)p.r(T)p.r(T)}|RNA2{r(A)p.r(A)p.r(G)p.r(G)p.r(G)p.r(A)p.r(G)p.r(A)p.r(G)p.r(C)p.r(U)p.r(G)p.r(G)p.r(G)p.m(U)p.r(A)p.r(G)p.r(A)p.r(U)p.r(T)p.r(T)}$$$RNA1{StrandType:ss}|RNA2{StrandType:as}$	77%
RNA1{m(A)p.r(U)p.m(C)p.r(G)p.m(U)p.r(C)p.m(G)p.r(U)p.m(C)p.r(A)p.m(G)p.r(G)p.m(G)p.m(U)p.r(A)p.m(A)p.r(G)p.m(G)p.r(U)p.r(T)p.r(T)}|RNA2{r(A)p.r(C)p.r(C)p.r(U)p.r(U)p.r(A)p.r(C)p.r(C)p.r(C)p.r(U)p.r(G)p.r(A)p.r(C)p.r(G)p.m(A)p.r(C)p.m(G)p.r(A)p.m(U)p.r(T)p.r(T)}$$$RNA1{StrandType:ss}|RNA2{StrandType:as}$	34%
